Measured values from patent US8008280B2, “Betulinol derivatives as anti-HIV agents” (priority 2004, dated 2011).
Read-outs that look alike come from different tables or passages of the source.

Assays:
[1] = test system: 174XCEM; experiment: Effect on cell viability, trypan blue dye exclusion; settings: trypan blue dye exclusion at four days and seven days
Experimental: Human T-B hybridoma cell line 174XCEM was exposed to a low multiplicity of infection (“MOI”) (MOI=1.0) of stock HIV-1 IIIB isolate for 2 hours at 37° C., washed ×3 with phosphate buffered saline (“PBS”), then plated at 250,000 cells/well in the presence of various agents, shown in Table 10. Dimethyl sulfoxide (“DMSO”) buffer was used as a […] control. A commercially available synthetic peptide, thrombospondin peptide (“TSP”), known as having HIV-1 inhibitory activity, was used as an “inhibitory activity” control. Two HIV isolates were used, a patient isolate (“child HIV”), and the standard CXCR4 co-receptor utilizing isolate IIIB.
The cell samples were assessed by trypan blue dye exclusion at four days and seven days.

[2] = test system: HIV-1 IIIB isolate; experiment: HIV-1 inhibitory effect, p24 antigen capture ELISA, acutely infected 174XCEM cells; format: cell-based; settings: 1 μg/ml (in DMSO); 4 days culture
[3] = test system: AZT-resistant strain; experiment: Anti-HIV activity against AZT-resistant patient isolates in MT-2 cells; format: cell-based
Text: These isolates were used to infect MT-2 cells in vitro.

[4] = Solubility in DMSO diluted with culture medium (GC, standard solubility curve); format: physicochemical
Experimental: The residue was dissolved in chloroform analyzed on GC.
Ethyl ether was then evaporated.

[5] = In vivo tolerability in mice with prostate cancer cell xenografts; settings: final concentration of 22% ethanol and 2×10−3 mol per liter of betulonic acid
[6] = test system: another HIV-1 isolate; experiment: Effect on 174XCEM cells chronically infected with another HIV-1 isolate; format: cell-based; settings: chronically infected 174XCEM cells; betulin diacetate single dose 1 μg/ml
Experimental: Agents were also evaluated for an effect on 174XCEM cells chronically infected with another HIV-1 isolate.

[7] = test system: carcinoma cell line CO-115 of the large intestine; settings: carcinoma cell line CO-115 (Ukkonen et al.); cited from earlier work
[8] = Solubilization in PBS containing human γ-globulin, human albumin and ethanol; format: physicochemical; settings: 1 × 10^−3 mol/L
[9] = Solubility of betulonic acid in human serum; format: physicochemical; settings: 1.34 mg in 31 μL neat ethanol diluted with 700 μL human serum; 4.2% final ethanol
[10] = test system: cells; settings: cited from earlier work
[11] = 1.0 mg in culture medium containing 20% DMSO

Q: With `C=C(C)[C@@H]1CC[C@]2(CO)CC[C@]3(C)[C@H](CC[C@@H]4[C@@]5(C)CC[C@H](OC(C)=O)C(C)(C)[C@@H]5CC[C@]43C)[C@@H]12` [3-acetoxy betulin, 3-Acetoxy Betulin] as the molecule, how does the “effect on total cell number or cell viability” value (“effect” below) [1] read?
A: The value was “no effect on total cell number or cell viability”.

Q: And the “anti-HIV-1 activity (HIV-1 gag (p24) antigen, OD units, FIG. 6)” value (“anti-HIV-1 activity” below) [2]?
A: Its value is “anti-HIV-1 activity superior to that previously disclosed in the art for other betulinol derivatives”.

Q: For `C=C(C)[C@@H]1CC[C@]2(COC(C)=O)CC[C@]3(C)[C@H](CC[C@@H]4[C@@]5(C)CC[C@H](O)C(C)(C)[C@@H]5CC[C@]43C)[C@@H]12` [28-acetoxy betulin, 28-Acetoxy Betulin], which “effect” value [1] is on record?
A: The value was “no effect on total cell number or cell viability”.

Q: And the “anti-HIV-1 activity” value [2]?
A: The value was “anti-HIV-1 activity superior to that previously disclosed in the art for other betulinol derivatives”.

Q: With `Cc1cn([C@H]2C[C@H](N=[N+]=[N-])[C@@H](CO)O2)c(=O)[nH]c1=O` [AZT, 3′-azido-3′-deoxythymidine, reference compound] as the molecule, how does the “inhibition in the HIV infection, AZT-resistant strain” value (shortened to “inhibition in the HIV infection”) ([3]; day 5 (FIG. 14)) read?
A: Its value is “ineffective”.

Q: With `C=C(C)C1CCC2(C(=O)NCCCCC(NC(=O)C(CCCCNC(=O)C34CCC(C(=C)C)C3[C@@H]3CC[C@H]5[C@]6(C)CCC(=O)C(C)(C)[C@H]6CC[C@]5(C)[C@@]3(C)CC4)NC(=O)OC(C)(C)C)C(=O)O)CC[C@]3(C)[C@H](CC[C@@H]4[C@@]5(C)CCC(=O)C(C)(C)[C@@H]5CC[C@]43C)C12` (stereo partly shown) [Boc-Dimer] as the molecule, how does the “Concentration of drug (mg/mL)” value [4, 11] read?
A: The value was 0.6 mg/mL.

Q: What about the “Concentration of drug (mol/L)” value [4, 11] of the same molecule?
A: The value was 0.0005 mol/L.

Q: And the “Con. in culture medium containing 20% DMSO” value ([4]; calculated (nominal) concentration)?
A: The value was 0.0005 mol/L.

Q: With `C=C(C)C1CCC2(C(=O)NCCCCC(NC(=O)OC(C)(C)C)C(=O)O)CC[C@]3(C)[C@H](CC[C@@H]4[C@@]5(C)CCC(=O)C(C)(C)[C@@H]5CC[C@]43C)C12` (stereo partly shown) [Boc-Monomer] as the molecule, how does the tolerability [5] read?
A: Its tolerability is “well tolerated”.

Q: What about the “Con. in culture medium containing 20% DMSO” value [4] of the same molecule?
A: The value was 0.001 mol/L.

Q: Which “inhibition (release of virus from chronically infected cells)” value [6] does the source give for `C=C(C)[C@@H]1CC[C@]2(COC(C)=O)CC[C@]3(C)[C@H](CC[C@@H]4[C@@]5(C)CC[C@H](OC(C)=O)C(C)(C)[C@@H]5CC[C@]43C)[C@@H]12` [betulin diacetate, Betulin Diacetate] here?
A: Its value is 20%.

Q: For `C=C(C)C1CCC2(COC)CCC3(C)C(CCC4C5(C)CCC(OC)C(C)(C)C5CCC43C)C12` (stereo not shown) [betulin dimethyl ether, Betulin Dimethyl ether], which “effect” value [1] is on record?
A: Its value is “no effect on total cell number or cell viability”.

Q: And the “anti-HIV-1 activity” value [2]?
A: The value was “anti-HIV-1 activity superior to that previously disclosed in the art for other betulinol derivatives”.

Q: Which “cytotoxic activity, LD 50” value [7] does the source give for `C=C(C)[C@@H]1CC[C@]2(C(=O)O)CC[C@]3(C)[C@H](CC[C@@H]4[C@@]5(C)CC[C@H](O)C(C)(C)[C@@H]5CC[C@]43C)[C@@H]12` [betulinic acid, Betulinic Acid] here?
A: The value was 0.375 mg/mL.

Q: For `C=C(C)C1CCC2(CO)CC[C@]3(C)[C@H](CC[C@@H]4[C@@]5(C)CCC(O)C(C)(C)[C@@H]5CC[C@]43C)C12` (stereo partly drawn) [betulinol, lup-20(29)-ene-3β, 28-diol], which “inhibition (release of virus from chronically infected cells)” value [6] is on record?
A: The value was “minimal effect”.

Q: For `C=C(C)[C@@H]1CC[C@]2(C=O)CC[C@]3(C)[C@H](CC[C@@H]4[C@@]5(C)CCC(=O)C(C)(C)[C@@H]5CC[C@]43C)[C@@H]12` [betulone aldehyde, Betulon Aldehyde], which “inhibition (release of virus from chronically infected cells)” value [6] is on record?
A: The value was “minimal effect”.

Q: Which Observation ([8]; 1.0 mg, ethanol 220 μL, γ-globulin 1.48 mL, albumin 0.49 mL) does the source give for `C=C(C)C1CCC2(C(=O)O)CC[C@]3(C)[C@H](CC[C@@H]4[C@@]5(C)CCC(=O)C(C)(C)[C@@H]5CC[C@]43C)C12` (stereo partly shown) [betulonic acid, Betulonic Acid] here?
A: Its Observation is “Cloudy”.

Q: What about the Observation ([8]; 1.3 mg, ethanol 280 μL, γ-globulin (27 mg/mL in PBS) 2.50 mL, albumin (42 mg/mL in PBS) 0 mL) of the same molecule?
A: The Observation was “Suspension”.

Q: And the “inhibition in the HIV infection” value ([3]; day 5 (FIG. 14))?
A: The value was 44%.

Q: And the “inhibition in the HIV infection” value ([3]; day 8 (FIG. 15))?
A: Its value is “increased further”.

Q: What about the tolerability [5] of the same molecule?
A: The tolerability was “well tolerated”.

Q: And the “Con. in culture medium containing 20% DMSO” value [4]?
A: Its value is 0.001 mol/L.

Q: What about the “amount of betulonic acid dissolved” value ([4]; 3 mg in culture medium containing 10% FBS with 1% DMSO, supernatant after centrifugation) of the same molecule?
A: Its value is 0.4 mg.

Q: What about the Observation [9] of the same molecule?
A: Its Observation is “Clear Solution”.

Q: And the “cytotoxicity, interfering with the proliferation of cells” value [10]?
A: Its value is “cytotoxic”.
